From US20040106135A1, “Assay for PPAR ligand dependent gene modulation” (priority 2002, published 2004)
Marks after values point to notes of the source that are not given here.

Legend:
HepG2 cells = test: Transcriptional profiling by DNA microarray, HepG2 cells; format: cell-based, human; details: endogenous levels of PPARα
From the text: Threshold cutoffs were set at fold change >1.4; p<0.01; and statistically significant in at least 2 experiments. The genes fatty acid CoA ligase 2 (FACL2), palmitoyl acyl-CoA oxidase 1 (ACOX1), and carnitine palmitoyl acyl-CoA transferase (CPT1A) are included for comparison based on published reports that they are PPARα responsive genes in HepG2 cells over expressing PPARα (Hsu et al., (2001) J. Biol. Chem. 276:27950-8; Lawrence et al., (2001) J. Biol. Chem. 276:31521-7).
Expression profiling: Expression profiling of RNA samples was performed essentially as described (Lockhart et al., (1996) Nat. Biotechnol. 14:1675-80) using the Affymetrix human U95Av2 array. Briefly, RNA was isolated from 100 mm cell culture dishes, DNased, and 15 μg used as a template for double stranded cDNA synthesis according to standard protocols (Invitrogen). […] The resultant cRNA products were purified using RNeasy columns (Qiagen), pooled, and quantitated spectrophotometrically. […]
Data Analysis: Affymetrix CEL files from GeneChip 4.0 (Affymetrix) were imported into Resolver 2.0 under an empirically derived Affymetrix error model (Rosetta Inpharmatics). […] Accordingly, the statistical significance (P-value) of a given expression data point takes into account the underlying error associated with the Affymetrix transcript abundance measurements as determined by this platform-specific error model. […]

[1] = Serum triglyceride levels in fat-fed hamsters; format: in vivo, hamster
Method: Blood was sampled at 8, 16 and 48 hours following a single drug treatment for total triglyceride analysis. The mean levels (+/−SEM) for 3 animals per group are shown. The “*” indicates a statistically significant difference with respect to control (p<0.01) by Student's t-test. Animal studies: All procedures performed in this study were approved by the Animal Care and Use committee, and conform to the guide for the Care and Use of Laboratory Animals Act. Male Syrian Golden hamsters (Charles River, Wilmington Mass.) weighing 120-140 g, were used in the study. Animals were kept on a 12-hour light/dark cycle and allowed free access to normal chow and water. The animals were divided into groups according to weight, and fed either an high fat diet (0.5% cholesterol, 5% coconut oil) (N=3) or normal chow diet (N=3). […] At intervals of 0, 8, 16 and 48 hr animals were anesthetized with CO2. Blood was collected by cardiac puncture into EDTA containing tubes; plasma was isolated for immediate analysis of triglycerides by the Dade Clinical Analyser®. Animals were then euthanized with CO2. The liver and kidneys were collected, flash frozen in liquid nitrogen and stored at −80° C. for future gene expression analysis.

SMILES: CCCCCCCN(CCc1ccc(SC(C)(C)C(=O)O)cc1)C(=O)Nc1ccc(F)cc1F [GW9578, ureido-thioisobutyric acid]
- Response of PPARα responsive genes (FACL2, CPT1, ACOX1) in HepG2 cells (HepG2 cells): No response
- Change of triglyceride levels compared with the control group ([1]; single dose, 8, 16 and 48 hours): significantly decreased
- Serum triglyceride levels, 48 h ([1]; single dose, mean +/- SEM, 3 animals, control 208.67): 104.67 + 12.02*
- Serum triglyceride levels, 8 h ([1]; single dose, mean +/- SEM, 3 animals, control 261.33): 106.00 + 46.22*
- Serum triglyceride levels, 16 h ([1]; single dose, mean +/- SEM, 3 animals, control 308.00): 142.33 + 51.31*
